Test results published in article PMC10722513.

Test: Au(I)-catalysed intramolecular Trp C2-H alkynylation: peptide-EBX (4-ethynylbenzoyl bis-CF3-benziodoxole on Lys side chain or N-terminus) + AuCl·Me2S, open flask
Conditions: HFIP, 5.0 mM, 25.0 °C, 0.17 h

Compound `CC(=O)N[C@H]1CCCCNC(=O)c2ccc(cc2)C#Cc2[nH]c3ccccc3c2C[C@@H](C(=O)O)NC(=O)[C@H](Cc2ccccc2)NC(=O)[C@H](C)NC(=O)[C@H](Cc2ccc(O)cc2)NC1=O` [Ac-K(EBX)-Y-A-F-W-OH] has a ring closure, isolated yield (from CC(=O)N[C@@H](CCCCNC(=O)c1ccc(C#CI2OC(C(F)(F)F)(C(F)(F)F)c3ccccc32)cc1)C(=O)N[C@@H](Cc1ccc(O)cc1)C(=O)N[C@@H](C)C(=O)N[C@@H](Cc1ccccc1)C(=O)N[C@@H](Cc1c[nH]c2ccccc12)C(=O)O, 28-membered ring) of 53%.

With `CC(=O)N[C@H]1CCCCNC(=O)c2ccc(cc2)C#Cc2[nH]c3ccccc3c2C[C@@H](C(=O)O)NC(=O)[C@H](Cc2ccccc2)NC(=O)[C@H](C)NC(=O)[C@H](CO)NC1=O` [Ac-K(EBX)-S-A-F-W-OH] the ring closure, isolated yield (from CC(=O)N[C@@H](CCCCNC(=O)c1ccc(C#CI2OC(C(F)(F)F)(C(F)(F)F)c3ccccc32)cc1)C(=O)N[C@@H](CO)C(=O)N[C@@H](C)C(=O)N[C@@H](Cc1ccccc1)C(=O)N[C@@H](Cc1c[nH]c2ccccc12)C(=O)O, 28-membered ring) was 67%.

With `CC(=O)N[C@H]1CCCCNC(=O)c2ccc(cc2)C#Cc2c(c3ccccc3n2C)C[C@@H](C(=O)O)NC(=O)[C@H](Cc2ccccc2)NC(=O)[C@H](C)NC(=O)[C@H](CC(C)C)NC1=O` [Ac-K(EBX)-L-A-F-W(1-Me)-OH] the ring closure, isolated yield (from CC(=O)N[C@@H](CCCCNC(=O)c1ccc(C#CI2OC(C(F)(F)F)(C(F)(F)F)c3ccccc32)cc1)C(=O)N[C@@H](CC(C)C)C(=O)N[C@@H](C)C(=O)N[C@@H](Cc1ccccc1)C(=O)N[C@@H](Cc1cn(C)c2ccccc12)C(=O)O, 28-membered ring) was 63%.

Compound `CC(=O)N[C@H]1CCCCNC(=O)c2ccc(cc2)C#Cc2[nH]c3ccccc3c2C[C@@H](C(=O)O)NC(=O)[C@H](Cc2ccccc2)NC(=O)[C@H](C)NC(=O)[C@H](Cc2c[nH]cn2)NC1=O` [Ac-K(EBX)-H-A-F-W-OH] has a ring closure, isolated yield (from CC(=O)N[C@@H](CCCCNC(=O)c1ccc(C#CI2OC(C(F)(F)F)(C(F)(F)F)c3ccccc32)cc1)C(=O)N[C@@H](Cc1c[nH]cn1)C(=O)N[C@@H](C)C(=O)N[C@@H](Cc1ccccc1)C(=O)N[C@@H](Cc1c[nH]c2ccccc12)C(=O)O, 28-membered ring) of 30%.

For `CC(=O)N[C@H]1CCCCNC(=O)c2ccc(cc2)C#Cc2[nH]c3ccccc3c2C[C@@H](C(=O)O)NC(=O)[C@H](Cc2ccccc2)NC(=O)[C@H](C)NC(=O)[C@H](CCC(=O)O)NC1=O` [Ac-K(EBX)-E-A-F-W-OH], the ring closure, isolated yield (from CC(=O)N[C@@H](CCCCNC(=O)c1ccc(C#CI2OC(C(F)(F)F)(C(F)(F)F)c3ccccc32)cc1)C(=O)N[C@@H](CCC(=O)O)C(=O)N[C@@H](C)C(=O)N[C@@H](Cc1ccccc1)C(=O)N[C@@H](Cc1c[nH]c2ccccc12)C(=O)O, 28-membered ring) was 37%.

With `N=C(N)NCCC[C@@H]1NC(=O)[C@H](CCCNC(=N)N)NC(=O)[C@H](CCCNC(=N)N)NC(=O)[C@H](CCCNC(=N)N)NC(=O)[C@H](Cc2ccc3ccccc3c2)NC(=O)c2ccc(cc2)C#Cc2[nH]c3ccccc3c2C[C@@H](C(N)=O)NC1=O` [EBX-Nal(2)-R-R-R-R-W-NH2] the ring closure, isolated yield (from N=C(N)NCCC[C@H](NC(=O)[C@H](CCCNC(=N)N)NC(=O)[C@H](CCCNC(=N)N)NC(=O)[C@H](CCCNC(=N)N)NC(=O)[C@H](Cc1ccc2ccccc2c1)NC(=O)c1ccc(C#CI2OC(C(F)(F)F)(C(F)(F)F)c3ccccc32)cc1)C(=O)N[C@@H](Cc1c[nH]c2ccccc12)C(N)=O, 27-membered ring) was 53%.

Compound `CC(=O)N[C@H]1CCCCNC(=O)c2ccc(cc2)C#Cc2[nH]c3ccccc3c2C[C@@H](C(=O)O)NC(=O)[C@H](Cc2ccccc2)NC(=O)[C@H](C)NC(=O)[C@H](CCCNC(=N)N)NC1=O` [Ac-K(EBX)-R-A-F-W-OH] has a ring closure, isolated yield (from CC(=O)N[C@@H](CCCCNC(=O)c1ccc(C#CI2OC(C(F)(F)F)(C(F)(F)F)c3ccccc32)cc1)C(=O)N[C@@H](CCCNC(=N)N)C(=O)N[C@@H](C)C(=O)N[C@@H](Cc1ccccc1)C(=O)N[C@@H](Cc1c[nH]c2ccccc12)C(=O)O, 28-membered ring) of 42%.

`CC(=O)N[C@H]1CCCCNC(=O)c2ccc(cc2)C#Cc2[nH]c3ccccc3c2C[C@@H](C(=O)O)NC(=O)[C@H](Cc2ccccc2)NC(=O)[C@H](C)NC(=O)[C@H](CSSC(C)(C)C)NC1=O` [Ac-K(EBX)-C(StBu)-A-F-W-OH] showed a ring closure, isolated yield (from CC(=O)N[C@@H](CCCCNC(=O)c1ccc(C#CI2OC(C(F)(F)F)(C(F)(F)F)c3ccccc32)cc1)C(=O)N[C@@H](CSSC(C)(C)C)C(=O)N[C@@H](C)C(=O)N[C@@H](Cc1ccccc1)C(=O)N[C@@H](Cc1c[nH]c2ccccc12)C(=O)O, 28-membered ring) of 25%.

In the case of `C[C@@H]1NC(=O)[C@H](CC(=O)O)NC(=O)CNC(=O)c2ccc(cc2)C#Cc2c(c3ccccc3n2C)C[C@@H](C(N)=O)NC(=O)[C@H](CCC(=O)O)NC(=O)CNC(=O)[C@H]([C@@H](C)O)NC(=O)[C@H](CCC(=O)O)NC1=O` [EBX-G-D-A-E-T-G-E-W(1-Me)-NH2], the ring closure, isolated yield (from C[C@H](NC(=O)[C@H](CC(=O)O)NC(=O)CNC(=O)c1ccc(C#CI2OC(C(F)(F)F)(C(F)(F)F)c3ccccc32)cc1)C(=O)N[C@@H](CCC(=O)O)C(=O)N[C@H](C(=O)NCC(=O)N[C@@H](CCC(=O)O)C(=O)N[C@@H](Cc1cn(C)c2ccccc12)C(N)=O)[C@@H](C)O, 33-membered ring) is reported as 61%.

`CC(=O)N[C@H]1CCCCNC(=O)c2ccc(cc2)C#Cc2[nH]c3ccccc3c2C[C@@H](C(=O)O)NC(=O)[C@H](Cc2ccccc2)NC(=O)[C@H](C)NC(=O)[C@H](CC(C)C)NC1=O` [Ac-K(EBX)-L-A-F-W-OH] showed a ring closure, isolated yield (from CC(=O)N[C@@H](CCCCNC(=O)c1ccc(C#CI2OC(C(F)(F)F)(C(F)(F)F)c3ccccc32)cc1)C(=O)N[C@@H](CC(C)C)C(=O)N[C@@H](C)C(=O)N[C@@H](Cc1ccccc1)C(=O)N[C@@H](Cc1c[nH]c2ccccc12)C(=O)O, 28-membered ring) of 56%.

Work on `C[C@@H]1NC(=O)[C@H](CC(=O)O)NC(=O)CNC(=O)c2ccc(cc2)C#Cc2[nH]c3ccccc3c2C[C@@H](C(N)=O)NC(=O)[C@H](CCC(=O)O)NC(=O)CNC(=O)[C@H]([C@@H](C)O)NC(=O)[C@H](CCC(=O)O)NC1=O` [EBX-G-D-A-E-T-G-E-W-NH2] yielded a ring closure, isolated yield (from C[C@H](NC(=O)[C@H](CC(=O)O)NC(=O)CNC(=O)c1ccc(C#CI2OC(C(F)(F)F)(C(F)(F)F)c3ccccc32)cc1)C(=O)N[C@@H](CCC(=O)O)C(=O)N[C@H](C(=O)NCC(=O)N[C@@H](CCC(=O)O)C(=O)N[C@@H](Cc1c[nH]c2ccccc12)C(N)=O)[C@@H](C)O, 33-membered ring) of 47%.

With `CC(=O)N[C@H](C(=O)N[C@@H](CO)C(=O)N[C@@H](Cc1ccccc1)C(=O)N[C@H]1CCCCNC(=O)c2ccc(cc2)C#Cc2[nH]c3ccccc3c2C[C@@H](C(=O)N[C@@H](C)C(=O)N[C@@H](CC(C)C)C(=O)N[C@@H](CC(C)C)C(=O)N[C@@H](Cc2c[nH]c3ccccc23)C(N)=O)NC(=O)[C@H](Cc2ccc(O)cc2)NC(=O)[C@H](CCC(=O)O)NC1=O)[C@@H](C)O` [Ac-T-S-F-K(EBX)-E-Y-W-A-L-L-W-NH2] the ring closure, isolated yield (from CC(=O)N[C@H](C(=O)N[C@@H](CO)C(=O)N[C@@H](Cc1ccccc1)C(=O)N[C@@H](CCCCNC(=O)c1ccc(C#CI2OC(C(F)(F)F)(C(F)(F)F)c3ccccc32)cc1)C(=O)N[C@@H](CCC(=O)O)C(=O)N[C@@H](Cc1ccc(O)cc1)C(=O)N[C@@H](Cc1c[nH]c2ccccc12)C(=O)N[C@@H](C)C(=O)N[C@@H](CC(C)C)C(=O)N[C@@H](CC(C)C)C(=O)N[C@@H](Cc1c[nH]c2ccccc12)C(N)=O)[C@@H](C)O, 25-membered ring) was 45%.

Work on `N=C(N)NCCC[C@@H]1NC(=O)CNC(=O)c2ccc(cc2)C#Cc2[nH]c3ccccc3c2C[C@@H](C(N)=O)NC(=O)[C@H](Cc2ccccc2)NC(=O)[C@H](CC(=O)O)NC(=O)CNC1=O` [EBX-G-R-G-D-F-W-NH2] yielded a ring closure, isolated yield (from N=C(N)NCCC[C@H](NC(=O)CNC(=O)c1ccc(C#CI2OC(C(F)(F)F)(C(F)(F)F)c3ccccc32)cc1)C(=O)NCC(=O)N[C@@H](CC(=O)O)C(=O)N[C@@H](Cc1ccccc1)C(=O)N[C@@H](Cc1c[nH]c2ccccc12)C(N)=O, 27-membered ring) of 63%.

Work on `CC(=O)N[C@H]1CCCCNC(=O)c2ccc(cc2)C#Cc2[nH]c3ccccc3c2C[C@@H](C(=O)O)NC(=O)[C@H](CC(C)C)NC1=O` [Ac-K(EBX)-L-W-OH] yielded a ring closure, isolated yield (from CC(=O)N[C@@H](CCCCNC(=O)c1ccc(C#CI2OC(C(F)(F)F)(C(F)(F)F)c3ccccc32)cc1)C(=O)N[C@@H](CC(C)C)C(=O)N[C@@H](Cc1c[nH]c2ccccc12)C(=O)O, 22-membered ring) of 40%.

With `CSCC[C@@H]1NC(=O)[C@@H](NC(C)=O)CCCCNC(=O)c2ccc(cc2)C#Cc2[nH]c3ccccc3c2C[C@@H](C(=O)O)NC(=O)[C@H](Cc2ccccc2)NC(=O)[C@H](C)NC1=O` [Ac-K(EBX)-M-A-F-W-OH] the ring closure, isolated yield (from CSCC[C@H](NC(=O)[C@H](CCCCNC(=O)c1ccc(C#CI2OC(C(F)(F)F)(C(F)(F)F)c3ccccc32)cc1)NC(C)=O)C(=O)N[C@@H](C)C(=O)N[C@@H](Cc1ccccc1)C(=O)N[C@@H](Cc1c[nH]c2ccccc12)C(=O)O, 28-membered ring) was 0%.

Work on `C[C@@H]1NC(=O)[C@H](CC(=O)O)NC(=O)c2ccc(cc2)C#Cc2c(c3ccccc3n2C)C[C@@H](C(N)=O)NC(=O)[C@H](CCC(=O)O)NC(=O)CNC(=O)[C@H]([C@@H](C)O)NC(=O)[C@H](CCC(=O)O)NC1=O` [EBX-D-A-E-T-G-E-W(1-Me)-NH2] yielded a ring closure, isolated yield (from C[C@H](NC(=O)[C@H](CC(=O)O)NC(=O)c1ccc(C#CI2OC(C(F)(F)F)(C(F)(F)F)c3ccccc32)cc1)C(=O)N[C@@H](CCC(=O)O)C(=O)N[C@H](C(=O)NCC(=O)N[C@@H](CCC(=O)O)C(=O)N[C@@H](Cc1cn(C)c2ccccc12)C(N)=O)[C@@H](C)O, 30-membered ring) of 86%.
